{"source": "patent US20240238392A1", "about": "(priority 2023, published 2024)", "key": {"[1]": {"test_system": "isolated cardiac fibroblasts", "conditions": "cited from earlier work"}, "neurokinin-1 receptor": {"biological_target": "neurokinin-1 receptor (Rattus norvegicus, UniProt P14600)", "sequence (P14600 whole entry)": "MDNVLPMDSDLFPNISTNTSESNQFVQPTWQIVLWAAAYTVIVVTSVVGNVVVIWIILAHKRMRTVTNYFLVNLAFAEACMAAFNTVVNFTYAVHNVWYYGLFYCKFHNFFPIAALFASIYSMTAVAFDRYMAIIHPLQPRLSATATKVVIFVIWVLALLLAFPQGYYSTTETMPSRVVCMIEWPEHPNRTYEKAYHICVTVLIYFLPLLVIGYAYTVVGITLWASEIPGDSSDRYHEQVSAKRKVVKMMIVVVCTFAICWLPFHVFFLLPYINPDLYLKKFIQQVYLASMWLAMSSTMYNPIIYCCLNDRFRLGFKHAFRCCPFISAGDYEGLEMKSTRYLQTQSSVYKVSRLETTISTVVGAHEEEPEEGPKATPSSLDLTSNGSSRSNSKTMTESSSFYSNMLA", "conditions": "in vivo; cited from earlier work"}, "[2]": {"test_system": "chronic heart failure caused by systolic dysfunction", "conditions": "human, in vivo"}, "[3]": {"test_system": "chronic heart failure caused by diastolic dysfunction", "conditions": "human, in vivo"}, "[4]": {"test_system": "acute heart failure caused by viral infection", "conditions": "human, in vivo"}}, "note": "Where no end group is shown, it is not given here."}
{"molecule": "substance P: sensory nerve neuropeptide (tachykinin) acting on the neurokinin-1 receptor (RPKPQQFFGLM; ends and bridges not checked; UniProt P20366 58-68, looked up)", "values": [{"measurement": "fibroblast function", "setting": "[1]", "result": "no changes in fibroblast function were observed"}, {"measurement": "genes related to cell-cell adhesion, cell-matrix adhesion, and extracellular matrix regulation", "setting": "[1]", "result": "transiently up-regulated"}]}
{"molecule": "CC(=O)N[C@@H](Cc1c[nH]c2ccccc12)C(=O)OCc1cc(C(F)(F)F)cc(C(F)(F)F)c1", "note": "[L732138]", "values": [{"measurement": "cardiac fibrosis in SHR", "setting": "neurokinin-1 receptor", "result": "prevented"}, {"measurement": "increase of fetal gene expression by cardiomyocytes in SHR", "setting": "neurokinin-1 receptor", "result": "prevented"}, {"measurement": "upregulation of endothelin-1 in SHR", "setting": "neurokinin-1 receptor", "result": "prevented"}]}
{"molecule": "botulinum toxin", "values": [{"measurement": "Substance P blood levels", "setting": "[2]", "result": "lower than before"}, {"measurement": "patient-reported breath and fatigue", "setting": "[2]", "result": "significant improvement in breath and fatigue"}, {"measurement": "glutamate blood level", "setting": "[3]", "result": "lower than before"}, {"measurement": "patient-reported breath and pulmonary edema", "setting": "[3]", "result": "significant improvement in breath and pulmonary edema"}, {"measurement": "substance P blood level", "setting": "[3]", "result": "lower than before"}]}
{"molecule": "[N-]=[N+]=O", "note": "[nitrous oxide]", "values": [{"measurement": "glutamate blood level", "setting": "[4]", "result": "lower than before"}, {"measurement": "patient-reported respiratory rate and peripheral edema", "setting": "[4]", "result": "significant improvement in respiratory rate and peripheral edema"}, {"measurement": "substance P blood level", "setting": "[4]", "result": "lower than before"}]}
